Test results: PubChem BioAssay (NCI)
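Values below derive from 48-hour exposures of cells grown in 96-well plates, with endpoints linearly interpolated between the two concentrations bracketing the appropriate inhibition level. GI50 marks 50% less growth. TGI is the concentration that stops growth completely.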

How the values were obtained:
Test in all cases: NCI-60 cell line screen, 48 h
[1] = tested on: SK-MEL-5 melanoma
[2] = tested on: DU-145 prostate
[3] = tested on: OVCAR-8 ovarian
[4] = tested on: NCI-H226 lung
[5] = tested on: SF-539 CNS
[6] = tested on: RPMI-8226 leukemia
[7] = tested on: 786-0 renal
[8] = tested on: UACC-257 melanoma
[9] = tested on: T-47D breast
[10] = tested on: HCC-2998 colon

SMILES | TGI [1] [µM] | TGI [2] [µM] | TGI [3] [µM] | TGI [4] [µM] | TGI [5] [µM] | TGI [6] [µM] | TGI [7] [µM] | TGI [8] [µM] | TGI [9] [µM] | GI50 [10] [µM] | TGI [10] [µM] | GI50 [1] [µM] | GI50 [2] [µM] | GI50 [3] [µM] | GI50 [4] [µM] | GI50 [5] [µM] | GI50 [7] [µM] | GI50 [8] [µM] | GI50 [9] [µM] | GI50 [6] [µM]
CSc1ccc2c(c1)N(CCCN(C)C)c1ccccc1S2 | 25.4 | 30.1 | 36.1 | 43.2 | 44.9 | 28.5 | 28.5 | 19.9 | 25.9 |  |  |  |  |  |  |  |  |  |  | 
C#CCN(CCCOc1ccc(Cl)cc1Cl)CCCSC(=O)CCCCCN1/C(=C\C=C2/CCCC(/C=C/C3=[N+](CCCCCC(=O)[O-])c4ccccc4C3(C)C)=C2Cl)C(C)(C)c2ccccc21 | 3.02 | 10.9 | 6.83 | 4.11 | 2.71 |  | 3.5 | 4.03 | 3.21 | 1.78 | 3.51 | 1.62 | 3.02 | 1.99 | 1.72 | 1.2 | 1.78 | 1.8 | 0.768 | 
CCOc1ccccc1NC(=O)C1=C(C)NC(C)=C(C(=O)Nc2ccccc2OCC)C1c1ccc2c(c1)OCO2 | 73.2 |  | > 100 | > 100 | 84.7 | > 100 | > 100 | > 100 |  |  | 54.9 |  |  |  |  |  |  |  |  | 
CC1(C)O[C@@H](CCl)C[C@@H](C#N)O1 | > 100 |  | > 100 | > 100 | > 100 | > 100 | > 100 | > 100 |  |  | > 100 |  |  |  |  |  |  |  |  | 
CC(=O)Nc1ccc2c(c1)[nH]c(=O)c1cc(Cl)ccc12 | > 100 | > 100 | 64.9 | 90.4 | > 100 |  | > 100 | 59.5 | > 100 |  | > 100 |  |  |  |  |  |  |  |  | 
COC(=O)C1C(=O)NC2(C)CC1c1ccccc1O2 (stereo not drawn) | > 100 |  | > 100 | > 100 | > 100 | > 100 | > 100 | > 100 |  |  | > 100 |  |  |  |  |  |  |  |  | 
O=C1Cc2c([nH]c3ccccc23)-c2cc(Br)ccc2N1 | > 100 |  | > 100 | > 100 | > 100 | > 100 | > 100 | > 100 |  |  | > 100 |  |  |  |  |  |  |  |  | 
CCOc1ccc(N=Nc2c(-c3ccccc3)nn(C(=O)CC(=O)Nc3ccccc3Cl)c2-c2ccccc2)cc1 | > 100 |  | > 100 | > 100 | > 100 | > 100 | > 100 | > 100 |  |  | > 100 |  |  |  |  |  |  |  |  | 
CC[C@]1(O)C[C@@H]2CN(CCc3c([nH]c4ccccc34)[C@@](C(=O)OC)(c3cc4c(cc3OC)N(C)[C@H]3[C@@](O)(C(=O)OC)[C@H](OC(=O)CCCBr)[C@]5(CC)C=CCN6CC[C@]43[C@@H]65)C2)C1 |  | 1.43 | > 100 | 99.7 |  | 0.492 | > 33.1 | > 100 |  | 0.0132 | 1.31 |  | < 0.01 | < 0.0209 | 5.87 |  | 0.0535 | 3.27 |  | < 0.01
c1ccc(-c2nc3ccccc3[nH]2)c(OCCCCCOc2ccccc2-c2nc3ccccc3[nH]2)c1 | 19.5 | 14.8 | 53 | 47.4 | 11.5 |  | 35.3 | 65.3 | 18.6 | 16.1 | 67.2 | 6.07 | 3.82 | 21.7 | 20 | 3.44 | 15.9 | 17.9 | 3.18 | 
